Measured values as given in ChEMBL document CHEMBL4665842, “Sortase A-Inhibitory Coumarins from the Folk Medicinal Plant Poncirus trifoliata” (J Nat Prod, 2020).
Converted amounts (≈) assume the structure as drawn. The source made the active and inactive calls. The calls are words filed in the database; no cut-off is given here.

Columns and labels:
[1] = Inhibition of recombinant Staphylococcus aureus ATCC 6538p sortase A using dabcyl-LPETG-edans as substrate incubated for 2 hrs by fluorometric method
Staphylococcus aureus [2] = assay: Inhibition of Staphylococcus aureus Newman sortase A assessed as […] in fibrinogen-mediated cell clumping at 100 uM after 2 hrs
Staphylococcus aureus [3] = assay: Inhibition of Staphylococcus aureus Newman sortase A assessed as […] in fibrinogen-mediated cell clumping after 2 hrs; conditions: dose microM 25-100, time 2.0 hrs
Staphylococcus aureus [4] = assay: Inhibition of Staphylococcus aureus Newman sortase A assessed as reduction in bacterial adherence to fibronectin-coated surfaces up to 4 times of IC50 concentration for every 30 mins for 2.5 hrs; conditions: time hrs <=2.5
Staphylococcus aureus [5] = assay: Antimicrobial activity against Staphylococcus aureus ATCC 6538p; type: functional

Row | SMILES | IC50 [1] [µM] | fold change (FC) (Staphylococcus aureus [2]) | inhibition (Staphylococcus aureus [3]) | inhibition (Staphylococcus aureus [4]) | MIC (Staphylococcus aureus [5]) [µM]
1 | CC(C)C(=O)Cc1c(OC[C@@H](O)C(C)(C)O)ccc2ccc(=O)oc12 | 34.5 | > 2 | Dose-dependent effect | Active | > 368
2 | CC(C)(O)[C@H](O)COc1ccc2ccc(=O)oc2c1C[C@H](O)C(C)(C)O | 47.2 | > 2 | Dose-dependent effect | – | > 350
3 | C=C(C)[C@H](CC/C(C)=C/COc1ccc2ccc(=O)oc2c1)OO | 23.5 | > 2 | Dose-dependent effect | – | > 388
4 | O=C(O)/C=C/c1ccc(O)cc1 [COUMARIC ACID] | > 780 | – | – | – | > 780
5 | COC(C)(C)[C@@H](O)Cc1c(OC[C@@H](O)C(C)(C)O)ccc2ccc(=O)oc12 | 26.6 | > 2 | Dose-dependent effect | Active | > 337
6 | CC1(C)S[C@@H]2[C@H](NC(=O)[C@H](N)c3ccccc3)C(=O)N2[C@H]1C(=O)O [AMPICILLIN] | – | – | – | – | 0.18 (≈ 0.0629 µg/mL)
7 | COC(C)(C)[C@H](O)COc1ccc2ccc(=O)oc2c1C[C@H](O)C(C)(C)O | 76 | – | – | – | > 337
8 | O=c1ccc2ccc(O)cc2o1 [UMBELLIFERONE] | – | – | – | – | > 790
9 | CC(C)(O)[C@H](O)COc1c2ccoc2cc2oc(=O)ccc12 [OXYPEUCEDANIN HYDRATE] | 230 | – | – | – | > 421
10 | C=C(C)[C@H](O)COc1ccc2ccc(=O)oc2c1CC(=O)C(C)C | 112 | – | – | – | > 388
11 | C/C(=C\COc1ccc2ccc(=O)oc2c1)C/C=C/C(C)(C)OO | 19.1 | > 2 | Dose-dependent effect | Active | > 388
12 | COC(C)(C)[C@H](O)COc1ccc2ccc(=O)oc2c1CC(=O)C(C)C | 119 | – | – | – | > 353
